Where two headings read alike, the source gives them in different places.
Key:
[1] = target: T1, recombinant human Wee1A kinase (Homo sapiens, UniProt P30291); test: Wee1A kinase binding assay (LanthaScreen Eu time-resolved FRET)
T1 construct: full length Wee1 kinase was expressed by baculovirus in insect cells; purchased Invitrogen PV3817; host or cells: insect cells (baculovirus)
Method in brief: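 Full-length, baculovirus-expressed GST-tagged Wee1A (5 nM) was mixed with 2 nM Eu-anti-GST antibody, 30 nM kinase tracer 178 and compound (1% DMSO). Buffer was 50 mM HEPES pH 7.5, 10 mM MgCl2, 1 mM EGTA, 0.01% Brij-35, incubated 60 min at room temperature. TR-FRET 665/615 nm emission ratios from duplicates were curve-fitted.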

ACHN cells = test: Cell Titer Glo viability assay, ACHN cells; type: cell-based; details: Homo sapiens, 144 h, absolute EC50
Method in brief: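 Cells grown in MEM with 10% FCS were seeded at 500 (A427), 400 (ACHN) or 250 (DAOY) per well and treated the next day with compound at 17 to 10 000 nM. Viability relative to untreated control was read at 144 h by CellTiter-Glo 2.0.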

[2] = target: T2, Myt1 kinase (CDK1 Thr14 phosphorylation in DAOY medulloblastoma cells) (Homo sapiens, UniProt Q99640); test: AlphaLISA assay, Myt1 kinase target engagement (phospho-CDK1 Thr14) in DAOY cells; type: cell-based
T2 construct: pCDK1 Thr14 AlphaLISA read-out
T2 sequence (Q99640 1-499): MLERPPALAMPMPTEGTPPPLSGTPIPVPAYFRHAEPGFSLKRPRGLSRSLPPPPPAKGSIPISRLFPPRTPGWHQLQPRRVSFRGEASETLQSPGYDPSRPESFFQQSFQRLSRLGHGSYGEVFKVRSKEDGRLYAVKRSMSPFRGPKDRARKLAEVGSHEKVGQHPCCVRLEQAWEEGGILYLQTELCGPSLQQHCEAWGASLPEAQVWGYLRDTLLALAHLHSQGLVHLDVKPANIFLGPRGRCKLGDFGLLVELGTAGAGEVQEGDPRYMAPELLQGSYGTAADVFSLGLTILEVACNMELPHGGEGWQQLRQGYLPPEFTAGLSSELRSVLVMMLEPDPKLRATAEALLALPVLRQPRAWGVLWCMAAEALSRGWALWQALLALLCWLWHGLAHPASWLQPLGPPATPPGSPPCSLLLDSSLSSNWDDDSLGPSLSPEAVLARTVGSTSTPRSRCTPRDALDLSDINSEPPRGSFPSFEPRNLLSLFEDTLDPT
Procedure: Each of an ACHN renal cell carcinoma cell line (ATCC) and a DAOY medulloblastoma cell line, and an A427 lung cancer line were cultured in Minimum Essential Medium Eagle supplemented with 10% fetal calf serum (Sigma), 1% Penicillin-Streptomycin and 10 mM HEPES buffer (HyClone). Cell cultures were kept in a humidified incubator at 37 °C and 5% CO2. Cells were routinely tested for Mycoplasma contamination.
For target engagement assessment of Myt1 kinase inhibition, quantification of Cdk1 phosphorylated on threonine 14 was detected using the AlphaLISA® SureFire® Ultra™ Human Phospho-CDK1 (Thr14) assay (Perkin Elmer). DAOY or ACHN cells were seeded into tissue culture treated 96-well plates (VWR) to a density of 10,000 or 20,000 cells per well respectively. 24 h post seeding cells were treated for 4 h with compounds at concentrations ranging from 7 to 5000 nM. Cells were washed with PBS and lysed in 50 μl AlphaLISA lysis buffer before freezing at −80 C. Ten ul of the lysate was transferred to 384 well plates and incubated with AlphaLISA donor and acceptor beads according to the manufacturer's instructions. Dose response curves and EC50 values were calculated and visualized using GraphPad Prism version 9. Target engagement for Myt1 kinase can also be measured using the same AlphaLISA assay in OVCAR3 cells, an ovarian cancer cell line. NIH:OVCAR-3 (OVCAR3) cells are cultured in RPMI-1640 medium supplemented with 0.01 mg/ml insulin, 20% FBS, 1% Penicillin-Streptomycin and 10 mM HEPES buffer. 14,000 cells per well are seeded into 96 well tissue culture plates in full medium. Twenty-four hours post seeding, cells are treated with compound for 4 hours at concentrations ranging from 0.017 nM to 1000 nM.

[3] = target: T3, Myt1 kinase (recombinant PMYT-1) (Homo sapiens, UniProt Q99640); test: Myt1 kinase binding assay (LanthaScreen Eu Kinase Binding Assay)
T3 construct: full length PMYT-1 was expressed by baculovirus in insect cells; purchased Invitrogen A30984; host or cells: insect cells (baculovirus)
T3 sequence (Q99640 1-499): T2 sequence (Q99640 1-499)
Method in brief: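 Compound binding to Myt1 kinase was assessed using the LanthaScreen Eu Kinase Binding Assay. This europium-based binding format was applied to quantify how strongly each compound bound to the Myt1 enzyme, and the binding affinity was reported for each compound as an IC50 value.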

[4] = target: T4, Wee1A kinase (CDK1 Tyr15 phosphorylation in ACHN renal cell carcinoma cells) (Homo sapiens, UniProt P30291); test: High-content imaging of pCdk1 Y15, Wee1A kinase target engagement in ACHN cells; type: cell-based
T4 construct: pCDK1 Tyr15 immunofluorescence read-out
T4 sequence (P30291 whole entry): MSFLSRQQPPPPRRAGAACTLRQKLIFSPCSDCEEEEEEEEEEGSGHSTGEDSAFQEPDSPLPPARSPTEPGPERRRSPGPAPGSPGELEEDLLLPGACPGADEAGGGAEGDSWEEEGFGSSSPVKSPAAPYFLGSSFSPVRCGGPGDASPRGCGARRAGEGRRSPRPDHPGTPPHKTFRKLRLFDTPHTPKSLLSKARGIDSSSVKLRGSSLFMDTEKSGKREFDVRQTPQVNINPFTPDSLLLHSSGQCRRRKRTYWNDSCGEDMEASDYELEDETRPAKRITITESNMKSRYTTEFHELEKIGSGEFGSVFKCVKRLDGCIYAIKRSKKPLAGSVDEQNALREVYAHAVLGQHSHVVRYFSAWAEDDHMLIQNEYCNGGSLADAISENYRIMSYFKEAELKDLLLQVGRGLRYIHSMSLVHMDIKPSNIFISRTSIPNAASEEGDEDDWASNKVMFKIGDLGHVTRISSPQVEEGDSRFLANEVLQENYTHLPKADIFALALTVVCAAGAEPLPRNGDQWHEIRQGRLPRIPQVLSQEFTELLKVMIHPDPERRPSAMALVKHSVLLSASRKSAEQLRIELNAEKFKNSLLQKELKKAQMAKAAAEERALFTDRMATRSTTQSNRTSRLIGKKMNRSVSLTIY
Method in brief: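 EC50 values come from the per-well fraction of cells with nuclear pCdk1 Y15 staining, normalised to DMSO control, by automated immunofluorescence imaging. Cells were ACHN renal carcinoma, treated 4 h with compound at 7–5,000 nM or 0.3–200 nM.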

[5] = 30 nM tracer 178, 5 nM Wee1A kinase, 2 nM Eu-labeled antibody, 60 minutes at room temperature, read-out: Wee1A kinase Binding IC50
[6] = 4 h treatment, read-out: CDK1 Thr14 Phosphorylation EC50
[7] = 3 nM tracer 178, 2.5 nM PMYT-1, 1 nM Eu-labeled antibody, read-out: Myt1 kinase Binding IC50
[8] = 4 h treatment, nuclear positivity for pCdk1 Y15 vs DMSO control, read-out: CDK1 Tyr15 Phosphorylation EC50

T1 sequence (P30291 whole entry): as above

| Structure (SMILES) | IC50 [1, 5] [nM] | EC50 (ACHN cells) [nM] | EC50 [2, 6] [nM] | IC50 [3, 7] [nM] | EC50 [4, 8] [nM] | IC50 [1] [nM] | EC50 ([2]; read-out: CDK1 Thr14 Phosphorylation EC50, 4 h treatment) [nM] | IC50 ([3]; Myt1 kinase Binding IC50, 3 nM tracer 178, 2.5 nM PMYT-1, 1 nM Eu-labeled antibody) [nM] | EC50 ([4]; read-out: CDK1 Tyr15 Phosphorylation EC50, 4 h treatment, nuclear positivity for pCdk1 Y15 vs DMSO control) [nM] |
| --- | --- | --- | --- | --- | --- | --- | --- | --- | --- |
| C=CCn1c(=O)c2cnc(Nc3ccc(OCC4CC4)cc3)nc2n1-c1cccc(OC2CCN(C)CC2)n1 [Compound 258, 2-allyl-6-((4-(cyclopropylmethoxy)phenyl)amino)-1-(6-((1-methylpiperidin-4-yl)oxy)pyridin-2-yl)-1,2-dihydro-3H-pyrazolo[3,4-d]pyrimidin-3-one] | < 10 | ≤ 100 | 200 to 500 | < 20 | < 100 |  |  |  |  |
| C=CCn1c(=O)c2cnc(Nc3ccc4nsnc4c3)nc2n1-c1cccc(OC2CCN(C)CC2)n1 [Compound 208, 2-allyl-6-(2,1,3-benzothiadiazol-5-ylamino)-1-[6-(1-methyl-4-piperidyloxy)-2-pyridyl]-1,2-dihydro-3H-1,2,5,7-tetraazainden-3-one] | < 10 | ≤ 100 | 200 to 500 | < 20 | < 100 |  |  |  |  |
| C=CCn1c(=O)c2cnc(Nc3ccc(OC)nc3)nc2n1-c1cccc(OC2CCN(C)CC2)n1 [Compound 250, 2-allyl-6-(6-methoxy-3-pyridylamino)-1-[6-(1-methyl-4-piperidyloxy)-2-pyridyl]-1,2-dihydro-3H-1,2,5,7-tetraazainden-3-one] | < 10 | ≤ 100 | 200 to 500 | 20 to 100 | < 100 |  |  |  |  |
| C=CCn1c(=O)c2cnc(Nc3ccc(Cl)cc3)nc2n1-c1cccc(O[C@H]2CCNC2)n1 [Compound 145, 1-{6-[(S)-3-pyrrolidinyloxy]-2-pyridyl}-2-allyl-6-(p-chlorophenylamino)-1,2-dihydro-3H-1,2,5,7-tetraazainden-3-one] | < 10 | 100 to 500 | 200 to 500 | 20 to 100 | 100 to 500 |  |  |  |  |
| C=CCn1c(=O)c2cnc(Nc3ccc(OCC(C)C)cc3)nc2n1-c1cccc(OC2CCN(C)CC2)n1 [Compound 257, 2-allyl-6-((4-isobutoxyphenyl)amino)-1-(6-((1-methylpiperidin-4-yl)oxy)pyridin-2-yl)-1,2-dihydro-3H-pyrazolo[3,4-d]pyrimidin-3-one] | < 10 | ≤ 100 | 500 to 1000 | < 20 | < 100 |  |  |  |  |
| C=CCn1c(=O)c2cnc(Nc3ccc4c(c3)OCO4)nc2n1-c1cccc(NC2CCN(C)CC2)n1 [Compound 196, 2-allyl-6-(2H-1,3-benzodioxol-5-ylamino)-1-[6-(1-methyl-4-piperidylamino)-2-pyridyl]-1,2-dihydro-3H-1,2,5,7-tetraazainden-3-one] | < 10 | ≤ 100 | > 1000 | 100 to 500 | < 100 |  |  |  |  |
| C=CCn1c(=O)c2cnc(Nc3ccc4c(cnn4C)c3)nc2n1-c1cccc(O[C@H]2CCN(C)C2)n1 [Compound 105, 1-{6-[(S)-1-methyl-3-pyrrolidinyloxy]-2-pyridyl}-2-allyl-6-(1-methyl-1H-indazol-5-ylamino)-1,2-dihydro-3H-1,2,5,7-tetraazainden-3-one] | < 10 | ≤ 100 | 500 to 1000 | 20 to 100 | < 100 |  |  |  |  |

More lines, now with the values ahead:

| IC50 [1, 5] [nM] | EC50 (ACHN cells) [nM] | EC50 [2, 6] [nM] | IC50 [3, 7] [nM] | EC50 [4, 8] [nM] | IC50 [1] [nM] | EC50 ([2]; read-out: CDK1 Thr14 Phosphorylation EC50, 4 h treatment) [nM] | IC50 ([3]; Myt1 kinase Binding IC50, 3 nM tracer 178, 2.5 nM PMYT-1, 1 nM Eu-labeled antibody) [nM] | EC50 ([4]; read-out: CDK1 Tyr15 Phosphorylation EC50, 4 h treatment, nuclear positivity for pCdk1 Y15 vs DMSO control) [nM] | Structure (SMILES) |
| --- | --- | --- | --- | --- | --- | --- | --- | --- | --- |
| < 10 | 100 to 500 | 500 to 1000 | < 20 | < 100 |  |  |  |  | C=CCn1c(=O)c2cnc(Nc3ccc4cccnc4c3)nc2n1-c1cccc(OC2CCNCC2)n1 [Compound 243, 2-allyl-1-[6-(4-piperidyloxy)-2-pyridyl]-6-(7-quinolylamino)-1,2-dihydro-3H-1,2,5,7-tetraazainden-3-one] |
| < 10 | ≤ 100 | 500 to 1000 | 20 to 100 | < 100 |  |  |  |  | C=CCn1c(=O)c2cnc(Nc3ccc4c(cnn4C)c3)nc2n1-c1cccc(OC2CCN(CC)CC2)n1 [Compound 321, 2-allyl-1-[6-(1-ethyl-4-piperidyloxy)-2-pyridyl]-6-(1-methyl-1H-indazol-5-ylamino)-1,2-dihydro-3H-1,2,5,7-tetraazainden-3-one] |
| < 10 | ≤ 100 | 200 to 500 | < 20 | < 100 |  |  |  |  | C=CCn1c(=O)c2cnc(Nc3ccc(OCC)cc3)nc2n1-c1cccc(OC2CCN(C)CC2)n1 [Compound 255, 2-allyl-6-((4-ethoxyphenyl)amino)-1-(6-((1-methylpiperidin-4-yl)oxy)pyridin-2-yl)-1,2-dihydro-3H-pyrazolo[3,4-d]pyrimidin-3-one] |
| < 10 | ≤ 100 | 200 to 500 | < 20 | < 100 |  |  |  |  | C=CCn1c(=O)c2cnc(Nc3ccc4c(cnn4C)c3)nc2n1-c1cccc(O[C@H]2CCCNC2)n1 [Compound 104, 1-{6-[(S)-3-piperidyloxy]-2-pyridyl}-2-allyl-6-(1-methyl-1H-indazol-5-ylamino)-1,2-dihydro-3H-1,2,5,7-tetraazainden-3-one] |
| < 10 | ≤ 100 | > 1000 | 20 to 100 | < 100 |  |  |  |  | C=CCn1c(=O)c2cnc(Nc3ccc4c(cnn4C)c3)nc2n1-c1ccnc(NC2CCN(C)CC2)n1 [Compound 313, 2-allyl-6-(1-methyl-1H-indazol-5-ylamino)-1-[2-(1-methyl-4-piperidylamino)-4-pyrimidinyl]-1,2-dihydro-3H-1,2,5,7-tetraazainden-3-one] |
| < 10 | 100 to 500 | 500 to 1000 | < 20 | 100 to 500 |  |  |  |  | C=CCn1c(=O)c2cnc(Nc3ccc4ncccc4c3)nc2n1-c1cccc(OC2CCNCC2)n1 [Compound 242, 2-allyl-1-[6-(4-piperidyloxy)-2-pyridyl]-6-(6-quinolylamino)-1,2-dihydro-3H-1,2,5,7-tetraazainden-3-one] |
|  | 100 to 500 |  |  |  | < 10 | 500 to 1000 | < 20 | 100 to 500 | C=CCn1c(=O)c2cnc(Nc3cnn(C)c3)nc2n1-c1cccc(O[C@H]2C[C@H]3CC[C@@H](C2)N3C)n1 [Compound 190, 6-[(1-methyl-1H-pyrazol-4-yl)amino]-1-(6-{[(trans)-8-methyl-8-azabicyclo[3.2.1]octan-3-yl]oxy}pyridin-2-yl)-2-(prop-2-en-1-yl)-1H,2H,3H-pyrazolo[3,4-d]pyrimidin-3-one] |

From patent US20260364080A1, “PYRAZOLO-PYRIMIDINONE COMPOUNDS FOR USE IN METHODS OF INHIBITING WEE1 A KINASE” (Acrivon Therapeutics, Inc., priority 2023, published 2026)
